Experimental data published in PMC12331786, “Component characterization of Smilax glabra Roxb., and its inhibitory activity against Helicobacter pylori through targeted suppression of its secreted urease” (Frontiers in Cellular and Infection Microbiology, 2025).
≈ marks a conversion by molar mass, not a printed value. Read-outs that look alike come from different tables or passages of the source.

Legend:
[1] = target: T1, jack bean urease (JBU) (Canavalia ensiformis, UniProt P07374); experiment: biochemical; assay type: biochemical
T1 construct: purchased Sigma Aldrich
Source text: Campylobacter agar medium was purchased from Thermo Fisher Scientific. Acetylhydroxamic acid (AHA), jack bean urease (JBU, type III with specific activity 40.3 U/mg solid) and urea were obtained from Sigma Aldrich. Boric acid (BA) and sodium fluoride (NaF) were purchased from Maclin (Shanghai, China). Dithiothreitol (DTT) and L-cysteine (L-cys) were obtained from Solaibao (Beijing, China). Glutathione (GSH) was obtained from Meilun (Dalian, China). HEPES (Amresco >99%) was from BioFroxx. All chemicals and reagents were of analytic purity.
(§1) The protein concentration of HPU was tested utilizing BCA protein detection kit. Standard urease test mixture consists of 150 mM urea in HEPES buffer (20 mM). HPU solution of varying concentrations was mixed with 150 mM urea as the substrate in a HEPES buffer (20 mM), and then reacted at 37 °C for 20 min. Urease vitality was assessed based on ammonia levels generated during the reaction. Ultimately, residual urease activity was measured by modified Berthelot (phenol hypochlorite) at 595 nm. This experiment was performed three times in parallel.
(§2) Test drug solution with equal volume and different concentration was mixed with urease and incubated in a 96-well plate at 37°C for 20 min. AHA was used as the positive control, while urease with urea (no depressor) served as the negative control. Moreover, urea solution (150 mM) was admixed and coincubated at ambient temperature for 20 min. Residual urease activity was measured via using the modified Berthelot method. The percentage of residual activity (RA%) was calculated as (A^sample - A^blank)/(A^negative control - A^blank)×100%, where A^blank represents the background absorbance without urease. Calculating the half-maximal inhibitory concentration (IC50) of the depressor to assess the impact of the test drug towards enzyme activity. Each experiment was conducted in triplicate for validation.

[2] = target: T2, H. pylori urease (HPU) (Helicobacter pylori, UniProt P69996); experiment: biochemical; assay type: biochemical, H. pylori strain ATCC 43504
T2 construct: The resulting HPU preparation represents a crude enzyme extract; endogenous in cells; host or cells: H. pylori strain ATCC 43504 (crude enzyme extract, method of Matsubara et al. 2003)
Protocol: H. pylori was inoculated in Campylobacter agar and grown on Columbia agar with appropriate bovine serum albumin at 37°C, 98% humidity, and low aerobic conditions (5% O2, 10% CO2, and 85% N2) for 72 hours. Three days later, H. pylori was collected by scraping and then suspended in phosphate buffered saline (PBS). Besides, the H. pylori concentration was calibrated to 1×10^8 CFU/mL by turbidimetric method. Standard HPU was extracted from H. pylori strain ATCC 43504 following the approach detailed by [Matsubara et al. (2003)]. The resulting HPU preparation represents a crude enzyme extract, which has been widely adopted for initial inhibitor screening studies ([Li et al., 2018]; [Tan et al., 2017]; [Yu et al., 2015]). All inhibition assays included appropriate controls (enzyme blanks and solvent controls) to ensure specific detection of urease activity.
as §1, §2

[3] = target: T2, H. pylori urease (HPU); experiment: biochemical; assay type: biochemical, H. pylori strain ATCC 43504; remark: listed apart in the source
Protocol: Residual urease activity was determined by pre-incubating test drug, urease mixture with a series of urea concentrations. Michaelis constant (KM ) and maximum velocity (vmax ) values are obtained from the Lineweaver-Burk plots of 1/v and 1/urea by plotting the reciprocal reaction velocity and substrate concentration. Variation characteristics of urease kinetic parameters KM and vmax were analyzed by adding different concentrations of test products to determine the type of inhibiting effect on HPU. Each sample was performed in triplicate.

[4] = target: T1, jack bean urease (JBU); experiment: biochemical; assay type: biochemical; remark: listed apart in the source
[5] = tested on: H. pylori strains (ATCC 43504, NCTC 26695, ICDC 111001); experiment: Minimal inhibitory concentration assay (agar dilution method); assay type: cell-based; conditions: Helicobacter pylori, H. pylori strain ICDC 111001

T2 sequence (P14916 whole entry): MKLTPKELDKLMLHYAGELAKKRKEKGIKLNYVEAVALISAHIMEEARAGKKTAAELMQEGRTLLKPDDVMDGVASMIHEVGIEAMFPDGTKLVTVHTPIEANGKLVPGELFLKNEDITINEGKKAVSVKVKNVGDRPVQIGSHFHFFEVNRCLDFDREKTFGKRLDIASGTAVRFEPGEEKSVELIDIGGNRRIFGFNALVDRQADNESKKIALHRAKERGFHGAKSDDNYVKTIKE
T2 sequence (P69996 whole entry): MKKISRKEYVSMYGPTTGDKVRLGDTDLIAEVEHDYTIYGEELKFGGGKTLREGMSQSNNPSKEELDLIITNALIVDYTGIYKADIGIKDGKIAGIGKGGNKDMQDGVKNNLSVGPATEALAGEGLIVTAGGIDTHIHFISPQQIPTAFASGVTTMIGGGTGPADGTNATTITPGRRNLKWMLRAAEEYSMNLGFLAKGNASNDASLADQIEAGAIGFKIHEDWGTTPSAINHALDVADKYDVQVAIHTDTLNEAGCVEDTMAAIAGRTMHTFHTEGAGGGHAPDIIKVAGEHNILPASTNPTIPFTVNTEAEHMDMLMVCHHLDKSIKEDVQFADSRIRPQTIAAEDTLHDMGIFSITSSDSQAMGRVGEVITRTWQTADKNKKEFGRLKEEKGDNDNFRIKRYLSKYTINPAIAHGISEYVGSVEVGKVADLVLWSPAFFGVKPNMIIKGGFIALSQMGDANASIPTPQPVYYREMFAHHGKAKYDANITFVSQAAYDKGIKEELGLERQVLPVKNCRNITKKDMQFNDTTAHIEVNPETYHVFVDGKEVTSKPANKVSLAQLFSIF
T1 sequence (P07374 whole entry, looked up): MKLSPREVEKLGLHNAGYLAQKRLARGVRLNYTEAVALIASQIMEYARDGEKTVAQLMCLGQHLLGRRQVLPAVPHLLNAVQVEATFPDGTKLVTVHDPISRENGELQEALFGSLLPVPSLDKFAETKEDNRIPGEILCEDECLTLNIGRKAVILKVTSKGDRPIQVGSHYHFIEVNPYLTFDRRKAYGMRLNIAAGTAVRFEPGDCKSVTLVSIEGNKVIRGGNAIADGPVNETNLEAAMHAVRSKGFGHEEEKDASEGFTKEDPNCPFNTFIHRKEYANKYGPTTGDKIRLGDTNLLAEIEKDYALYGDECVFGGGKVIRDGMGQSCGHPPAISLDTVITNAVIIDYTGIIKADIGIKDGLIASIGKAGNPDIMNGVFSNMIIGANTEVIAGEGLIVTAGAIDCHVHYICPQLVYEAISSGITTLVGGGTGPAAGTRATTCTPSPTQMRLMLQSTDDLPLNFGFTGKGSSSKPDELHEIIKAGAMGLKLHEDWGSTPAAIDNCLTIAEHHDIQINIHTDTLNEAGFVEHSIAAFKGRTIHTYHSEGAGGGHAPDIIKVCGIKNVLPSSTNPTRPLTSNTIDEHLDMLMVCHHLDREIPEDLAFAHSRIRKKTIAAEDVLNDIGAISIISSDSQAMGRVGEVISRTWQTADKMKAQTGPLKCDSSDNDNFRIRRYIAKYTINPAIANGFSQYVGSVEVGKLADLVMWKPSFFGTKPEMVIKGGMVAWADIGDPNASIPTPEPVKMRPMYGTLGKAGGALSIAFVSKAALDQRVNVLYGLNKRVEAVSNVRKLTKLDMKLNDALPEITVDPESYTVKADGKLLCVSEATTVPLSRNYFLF

C[C@@H]1O[C@@H](O[C@H]2C(=O)c3c(O)cc(O)cc3O[C@@H]2c2ccc(O)cc2)[C@H](O)[C@H](O)[C@H]1O [engeletin]
IC50 [1]: 6670 ± 10 µM | IC50 [2]: 5890 ± 10 µM

C[C@@H]1O[C@@H](O[C@H]2C(=O)c3c(O)cc(O)cc3O[C@@H]2c2ccc(O)c(O)c2)[C@H](O)[C@H](O)[C@H]1O [astilbin]
IC50 [1]: 2220 ± 20 µM | Ki [3]: 870 ± 10 µM | Kis ([3]; HPU): 0.87 ± 0.01 mM | Inhibition type ([3]; HPU, Lineweaver-Burk analysis): non-competitive | Ki [4]: 200 ± 10 µM | Kis ([4]; JBU): 1.17 ± 0.10 mM | Inhibition type ([4]; JBU, Lineweaver-Burk analysis): mixed | IC50 [2]: 1470 ± 10 µM | Strength of urease inhibition relative to engeletin ([2]; urease, HPU/JBU not given): more than three times as strongly

Cc1ncc([N+](=O)[O-])n1CCO [Metronidazole]
MIC [5]: 2 µg/mL (≈ 11.7 µM) | MIC ([5]; pH 7.2): 2 µg/mL (≈ 11.7 µM)

CC(=O)NO [AHA, Acetylhydroxamic acid, reference compound]
IC50 ([1]; JBU, positive control): 1.56 ± 0.10 µg/mL | IC50 ([2]; HPU, positive control): 4.93 ± 0.11 µg/mL
